Results as given in the supplement of paper PMC11451515.

Columns and labels:
Conditions in all cases: 48 h
[1] = test system: SEM cells; test: cell viability relative to DMSO control; higher = less cytotoxic
In short: (§1)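 NOMO1 or SEM (500 cells/well) or P12-Ichikawa (1000 cells/well) leukemia cells were adapted for at least four passages in each medium. They were seeded in 1536-well plates (5 μl) and pin-dosed with library compounds in DMSO over an 11-point threefold series, 47 μM to 0.79 nM. CellTiter-Glo One luminescence was read after 48 h at 37°C. Viability is the per-plate percentage relative to DMSO wells, with cell-free wells as background.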

[2] = test system: P12-Ichikawa; test: as above
In short: as §1

[3] = test system: NOMO1; test: as above
In short: as §1

[4] = test system: SEM cells; test: AUC of viability dose-response curve (% viability x log10 dose units); higher = less sensitive
In short: (§2)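 Leukemia cells adapted to each medium were seeded in 1536-well plates (500 or 1000 cells/well). They were dosed with library compounds in DMSO at 11 threefold doses, 47 μM to 0.79 nM, for 48 h at 37°C. CellTiter-Glo One luminescence was normalised per plate to DMSO and cell-free wells. Area under the curve was integrated by trapezoidal rule over log10 doses on a four-parameter log-logistic fit; curves exceeding full viability were scaled and curves failing quality control removed.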

[5] = test system: P12-Ichikawa; test: as above
In short: as §2

[6] = test system: NOMO1; test: as above
In short: as §2

CN(C)[C@H]\1[C@@H]2C[C@H]3C(=C(O)\[C@]2(O)C(=O)\C(=C1O)C(N)=O)/C(=O)C4=C(O)C=CC=C4[C@@]3(C)O
cell viability [%]
Conditions | [1] | [2] | [3]
HPLM + 10% dialyzed FBS, 0.000781 µM | 92.6 | 113 | 104
HPLM + 10% dialyzed FBS, 0.00234 µM | 88.5 | 115 | 111
HPLM + 10% dialyzed FBS, 0.00702 µM | 81.5 | 114 | 104
HPLM + 10% dialyzed FBS, 0.0211 µM | 101 | 115 | 109
HPLM + 10% dialyzed FBS, 0.0632 µM | 92.5 | 113 | 111
HPLM + 10% dialyzed FBS, 0.19 µM | 90.8 | 116 | 106
HPLM + 10% dialyzed FBS, 0.569 µM | 92.7 | 114 | 120
HPLM + 10% dialyzed FBS, 1.71 µM | 86.6 | 111 | 95.1
HPLM + 10% dialyzed FBS, 5.12 µM | 85.2 | 114 | 121
HPLM + 10% dialyzed FBS, 15.4 µM | 90.1 | 108 | 97.1
HPLM + 10% dialyzed FBS, 46.1 µM | 78.3 | 93.9 | 99.6
RPMI 5 mM glucose + 10% FBS, 0.000781 µM | 113 | 112 | 117
RPMI 5 mM glucose + 10% FBS, 0.00234 µM | 118 | 103 | 124
RPMI 5 mM glucose + 10% FBS, 0.00702 µM | 114 | 109 | 118
RPMI 5 mM glucose + 10% FBS, 0.0211 µM | 102 | 116 | 125
RPMI 5 mM glucose + 10% FBS, 0.0632 µM | 83.7 | 118 | 108
RPMI 5 mM glucose + 10% FBS, 0.19 µM | 104 | 110 | 102
RPMI 5 mM glucose + 10% FBS, 0.569 µM | 108 | 114 | 119
RPMI 5 mM glucose + 10% FBS, 1.71 µM | 96.8 | 107 | 110
RPMI 5 mM glucose + 10% FBS, 5.12 µM | 93.2 | 115 | 102
RPMI 5 mM glucose + 10% FBS, 15.4 µM | 109 | 92.8 | 104
RPMI 5 mM glucose + 10% FBS, 46.1 µM | 93 | 98.8 | 106
RPMI 5 mM glucose + 10% dialyzed FBS, 0.000781 µM | 118 | 114 | 104
RPMI 5 mM glucose + 10% dialyzed FBS, 0.00234 µM | 108 | 101 | 116
RPMI 5 mM glucose + 10% dialyzed FBS, 0.00702 µM | 128 | 114 | 112
RPMI 5 mM glucose + 10% dialyzed FBS, 0.0211 µM | 129 | 111 | 115
RPMI 5 mM glucose + 10% dialyzed FBS, 0.0632 µM | 89.8 | 116 | 112
RPMI 5 mM glucose + 10% dialyzed FBS, 0.19 µM | 108 | 116 | 102
RPMI 5 mM glucose + 10% dialyzed FBS, 0.569 µM | 126 | 111 | 110
RPMI 5 mM glucose + 10% dialyzed FBS, 1.71 µM | 116 | 104 | 95
RPMI 5 mM glucose + 10% dialyzed FBS, 5.12 µM | 59.4 | 105 | 110
RPMI 5 mM glucose + 10% dialyzed FBS, 15.4 µM | 116 | 97.5 | 101
RPMI 5 mM glucose + 10% dialyzed FBS, 46.1 µM | 100 | 97 | 93.4

AUC of viability dose-response curve
Conditions | [4] | [5] | [6]
HPLM + 10% dialyzed FBS | 426 | 470 | 468
RPMI 5 mM glucose + 10% FBS | 441 | 467 | 443
RPMI 5 mM glucose + 10% dialyzed FBS | 452 | 461 | 454

C[C@@]12C[C@@]3(O)O[C@@H](O1)[C@]1(COC(=O)c4ccccc4)[C@H]3C[C@@]12O[C@@H]1O[C@H](CO)[C@@H](O)[C@H](O)[C@H]1O
cell viability [%]
Conditions | [1] | [2] | [3]
HPLM + 10% dialyzed FBS, 0.000781 µM | 96 | 91.3 | 94.6
HPLM + 10% dialyzed FBS, 0.00234 µM | 91.2 | 96 | 112
HPLM + 10% dialyzed FBS, 0.00702 µM | 109 | 103 | 99.3
HPLM + 10% dialyzed FBS, 0.0211 µM | 117 | 100 | 126
HPLM + 10% dialyzed FBS, 0.0632 µM | 98.5 | 110 | 124
HPLM + 10% dialyzed FBS, 0.19 µM | 103 | 99.5 | 130
HPLM + 10% dialyzed FBS, 0.569 µM | 108 | 103 | 137
HPLM + 10% dialyzed FBS, 1.71 µM | 96.7 | 108 | 113
HPLM + 10% dialyzed FBS, 5.12 µM | 107 | 109 | 100
HPLM + 10% dialyzed FBS, 15.4 µM | 113 | 97.5 | 71.1
HPLM + 10% dialyzed FBS, 46.1 µM | 107 | 76.7 | 45.5
RPMI 5 mM glucose + 10% FBS, 0.000781 µM | 105 | 94.9 | 100
RPMI 5 mM glucose + 10% FBS, 0.00234 µM | 87 | 99.4 | 95.2
RPMI 5 mM glucose + 10% FBS, 0.00702 µM | 101 | 111 | 109
RPMI 5 mM glucose + 10% FBS, 0.0211 µM | 100 | 111 | 103
RPMI 5 mM glucose + 10% FBS, 0.0632 µM | 124 | 118 | 114
RPMI 5 mM glucose + 10% FBS, 0.19 µM | 92.6 | 105 | 105
RPMI 5 mM glucose + 10% FBS, 0.569 µM | 116 | 108 | 105
RPMI 5 mM glucose + 10% FBS, 1.71 µM | 138 | 116 | 103
RPMI 5 mM glucose + 10% FBS, 5.12 µM | 111 | 118 | 98.3
RPMI 5 mM glucose + 10% FBS, 15.4 µM | 105 | 113 | 109
RPMI 5 mM glucose + 10% FBS, 46.1 µM | 98.9 | 112 | 112
RPMI 5 mM glucose + 10% dialyzed FBS, 0.000781 µM | 99 | 89.8 | 103
RPMI 5 mM glucose + 10% dialyzed FBS, 0.00234 µM | 89.8 | 95.4 | 91.2
RPMI 5 mM glucose + 10% dialyzed FBS, 0.00702 µM | 118 | 103 | 94.9
RPMI 5 mM glucose + 10% dialyzed FBS, 0.0211 µM | 122 | 110 | 103
RPMI 5 mM glucose + 10% dialyzed FBS, 0.0632 µM | 121 | 105 | 101
RPMI 5 mM glucose + 10% dialyzed FBS, 0.19 µM | 101 | 97.4 | 114
RPMI 5 mM glucose + 10% dialyzed FBS, 0.569 µM | 119 | 108 | 93.7
RPMI 5 mM glucose + 10% dialyzed FBS, 1.71 µM | 115 | 104 | 107
RPMI 5 mM glucose + 10% dialyzed FBS, 5.12 µM | 122 | 103 | 114
RPMI 5 mM glucose + 10% dialyzed FBS, 15.4 µM | 107 | 110 | 110
RPMI 5 mM glucose + 10% dialyzed FBS, 46.1 µM | 122 | 101 | 91

AUC of viability dose-response curve
Conditions | [4] | [5] | [6]
HPLM + 10% dialyzed FBS | 456 | 469 | 436
RPMI 5 mM glucose + 10% FBS | 454 | 467 | 463
RPMI 5 mM glucose + 10% dialyzed FBS | 463 | 469 | 463

COC1=CC=C(C=C1)C/2=C/OC3=C(C(=CC(=C3)O)O)C2=O
cell viability [%]
Conditions | [1] | [2] | [3]
HPLM + 10% dialyzed FBS, 0.000781 µM | 108 | 113 | 111
HPLM + 10% dialyzed FBS, 0.00234 µM | 124 | 120 | 124
HPLM + 10% dialyzed FBS, 0.00702 µM | 110 | 118 | 133
HPLM + 10% dialyzed FBS, 0.0211 µM | 95.9 | 77.2 | 114
HPLM + 10% dialyzed FBS, 0.0632 µM | 115 | 124 | 130
HPLM + 10% dialyzed FBS, 0.19 µM | 114 | 120 | 123
HPLM + 10% dialyzed FBS, 0.569 µM | 125 | 119 | 133
HPLM + 10% dialyzed FBS, 1.71 µM | 124 | 123 | 122
HPLM + 10% dialyzed FBS, 5.12 µM | 125 | 117 | 116
HPLM + 10% dialyzed FBS, 15.4 µM | 131 | 105 | 114
HPLM + 10% dialyzed FBS, 46.1 µM | 75.2 | 74.5 | 60.5
RPMI 5 mM glucose + 10% FBS, 0.000781 µM | 90.7 | 108 | –
RPMI 5 mM glucose + 10% FBS, 0.00234 µM | 92.9 | 108 | –
RPMI 5 mM glucose + 10% FBS, 0.00702 µM | 101 | 113 | –
RPMI 5 mM glucose + 10% FBS, 0.0211 µM | 74.8 | 65.2 | –
RPMI 5 mM glucose + 10% FBS, 0.0632 µM | 103 | 120 | –
RPMI 5 mM glucose + 10% FBS, 0.19 µM | 100 | 120 | –
RPMI 5 mM glucose + 10% FBS, 0.569 µM | 108 | 133 | –
RPMI 5 mM glucose + 10% FBS, 1.71 µM | 106 | 121 | –
RPMI 5 mM glucose + 10% FBS, 5.12 µM | 124 | 123 | –
RPMI 5 mM glucose + 10% FBS, 15.4 µM | 114 | 127 | –
RPMI 5 mM glucose + 10% FBS, 46.1 µM | 98.2 | 123 | –
RPMI 5 mM glucose + 10% dialyzed FBS, 0.000781 µM | 98.7 | 118 | 111
RPMI 5 mM glucose + 10% dialyzed FBS, 0.00234 µM | 115 | 118 | 116
RPMI 5 mM glucose + 10% dialyzed FBS, 0.00702 µM | 122 | 119 | 120
RPMI 5 mM glucose + 10% dialyzed FBS, 0.0211 µM | 77.4 | 82 | 130
RPMI 5 mM glucose + 10% dialyzed FBS, 0.0632 µM | 133 | 131 | 156
RPMI 5 mM glucose + 10% dialyzed FBS, 0.19 µM | 130 | 133 | 144
RPMI 5 mM glucose + 10% dialyzed FBS, 0.569 µM | 132 | 129 | 144
RPMI 5 mM glucose + 10% dialyzed FBS, 1.71 µM | 138 | 137 | 140
RPMI 5 mM glucose + 10% dialyzed FBS, 5.12 µM | 143 | 133 | 140
RPMI 5 mM glucose + 10% dialyzed FBS, 15.4 µM | 145 | 134 | 143
RPMI 5 mM glucose + 10% dialyzed FBS, 46.1 µM | 132 | 93.7 | 106

AUC of viability dose-response curve
Conditions | [4] | [5] | [6]
HPLM + 10% dialyzed FBS | 463 | 465 | 460
RPMI 5 mM glucose + 10% FBS | 436 | 441 | 474
RPMI 5 mM glucose + 10% dialyzed FBS | 435 | 453 | 453
